Measurements: patent US20160031796A1, “ANTIMUSCARINIC COMPOUND HAVING A LOW CONTENT OF IMPURITIES” (Dipharma Francis S.r.l., priority 2014, published 2016)
Structures can show the parent of a compound that is named as a salt.

Assays:
[1] = stability studies of Fesoterodine fumarate samples under various temperature and humidity conditions, HPLC analysis; type: physicochemical
Excerpt: Various samples of Fesoterodine fumarate salt of formula (I) have been taken from a batch of product, obtained using the process of the present invention, having a HPLC purity exceeding 99.8% and a content of the impurities of formulas (II), (III), (IV), (V), (VI) or (VII) of less than 0.10%, calculated as HPLC Area %, and completely free of impurities of formula (VIII) and (IX). Some of the samples taken were also micronized to reduce the particle size, both the samples directly taken from the sample batch and the micronized samples have been subjected to stability studies under various temperature and humidity conditions for up to 90 days.
An example of the conditions used in the stability studies were 40° C. with 75% relative humidity and 25° C. with 60% relative humidity.

[2] = Fesoterodine fumarate obtained as disclosed in EP 2 251 318 (prior art); cited from earlier work

CC(C)C(=O)Oc1ccc(CO)cc1[C@H](CCN(C(C)C)C(C)C)c1ccccc1 [Fesoterodine fumarate, (R)-2-(3-diisopropylamino-1-phenylpropyl)-4-(hydroxymethyl)phenol isobutyrate]
formation of impurities of formula (VIII) and/or (IX) ([1]; HPLC analysis, any of the conditions used, up to 90 days, e.g. 40° C./75% RH and 25° C./60% RH): has not shown the formation
increase in the content of impurities of formula (VI), (VII), (VIII) or (IX) over time ([1]; after 90 days under various temperature and humidity conditions): did not show any increase
stability of micronized sample on storage ([1]; micronized, maintained for 3 months at 4° C.): completely unaltered
impurities content of formula (VI) and/or (VII) ([1]; stability studies up to 90 days, e.g. 40° C. with 75% relative humidity and 25° C. with 60% relative humidity, batch samples and micronized samples): less than 0.10 % (HPLC Area %)
impurity of formula (VI) generated over time [2]: > 1%
